Test results as given in patent publication US8609065B2, “Molecules for targeting compounds to various selected organs, tissues or tumor cells” (Prosensa Technologies B.V., priority 2007, dated 2013).
Peptide text beside a SMILES is read from it.

What was measured:
[1] = system: N1E-115 mouse neuroblastoma cells; test: In vitro uptake of FAM-labeled peptides into neuroblastoma cells (fluorescence microscopy); assay type: cell-based; details: FAM-labeled peptide, N1E-115 cells
Description: A selection of peptides was synthesized and provided with a fluorescent label (FAM) and screened for uptake on mouse neuroblastoma cells in vitro.
N1E-115 mouse neuroblastoma cells were incubated with the FAM-labeled peptides and photographed with an inverted fluorescence microscope, without previous fixation.

KM109 cells = test: Uptake of fluorescently labeled variants of THRPPMWSPVWP on KM109 cells; assay type: cell-based; details: fluorescently labeled peptide
Description: Several variants of peptide THRPPMWSPVWP (SEQ ID NO: 1) (see Table 2) were selected, synthesized with a fluorescent label and tested for uptake on KM109 cells. Peptides 3, 7, 8, 9, 10, and 11 were tested. […] The other peptides depicted in the table below are yet to be tested for uptake on KM109 cells. Moreover, all peptides are to be tested for uptake on neuroblastoma cells in a similar fashion.

muscle cells = test: Selective uptake by muscle cells (summary statement); assay type: cell-based
Source text: Therefore, these may be used for targeting diagnostic moieties or biologically active moieties to an organ or tissue or cell type of interest, especially to muscle cells or across the blood brain barrier to brain cells, to neuronal cells or to tumor cells of neuronal or neuroectodermal origin.

[2] = In vivo targeting to brain cells, Cy5-labeled peptide imaging; details: 7 nmol intravenously, nude mouse
Description: Peptide THRPPMWSPVWP (SEQ ID NO: 1) was labeled with a Cy5 fluorescent label and 7 nmol was injected intravenously into the tail vein of a nude mouse. Pictures were taken with a Maestro imaging system using the filters for Cy5 detection.
On the left side of FIGS. 1A and 1B the detected Cy5 pattern is shown separately in red for quantitation. The numbers on the left side indicate the amount of detected Cy5 label.

LPWKPLG
intracellular staining pattern after uptake [1]: uniform staining of the cytoplasm as well as the nucleus | uptake by the neuroblastoma cells ([1]; inverted fluorescence microscope, no fixation): efficiently taken up

THRPPMWS
uptake on KM109 cells (KM109 cells): taken up, although at a lower level | selective uptake by muscle cells (muscle cells): selectively taken up by muscle cells

HRPPMWSPVW
uptake on KM109 cells (KM109 cells): taken up, although at a lower level | selective uptake by muscle cells (muscle cells): selectively taken up by muscle cells

HRPPMWSPVWP
uptake on KM109 cells (KM109 cells): taken up very efficiently | selective uptake by muscle cells (muscle cells): selectively taken up by muscle cells

CSCC[C@H](NC(=O)[C@@H]1CCCN1C(=O)[C@@H]1CCCN1C(=O)[C@H](CCCNC(=N)N)NC(=O)[C@H](Cc1c[nH]cn1)NC(=O)[C@@H](N)[C@@H](C)O)C(=O)N[C@@H](Cc1c[nH]c2ccccc12)C(=O)N[C@@H](CO)C(=O)N1CCC[C@H]1C(=O)N[C@H](C(=O)N[C@@H](Cc1c[nH]c2ccccc12)C(=O)N1CCC[C@H]1C(=O)O)C(C)C [THRPPMWSPVWP] (H-THRPPMWSPVWP-OH; N-terminus and C-terminus assumed)
crossing of the blood brain barrier [2]: able to cross the blood brain barrier | Cy5 signal in the brain ([2]; 20 minutes after injection): clear signal could be detected in the brain
